We go through five compounds from patent publication US6361773B1, “Antibodies produced against cytokine suppressive anti-inflammatory drug binding proteins” (SmithKline Beecham Corporation, priority 1993, dated 2002).

Like-named read-outs stand apart in the source and are kept apart here. Some results are limits rather than exact numbers.

Experiment [1] concerns the target T1, CSAID binding protein (CSBP) in THP.1 cytosol (Homo sapiens, UniProt Q16539).
T1 construct: endogenous in cells; host or cells: THP.1 (ATCC TIB 202), cytosolic fraction (100,000 x g supernatant)
Kind of experiment: CSAID binding assay with 3H-Compound I and THP.1 cytosol.

In experiment [2] the test system is IL-1 production in human monocytes. In words: CSAIDs bioassay (IL-1 dependent EL-4/IL2 induction assay, LPS-stimulated human monocytes). Format: cell-based. Conditions: Monocyte. The procedure: The biological assay employed to evaluate CSAIDs activity was the IL-1 dependent EL-4/IL2 induction assay (Simon, P. L. et al., J. Immuno. Meth. 84: 85-94 (1985)). Briefly, Human monocytes were plated in 24-well plates in LPS-free RPMI 1640 media containing 1% human AB serum at a concentration of 10^6 per millilitre per well and allowed to adhere for 1 h at 37° C.; non-adherent cells were removed by gentle washing. Test compounds or media were added to the cells 0 or 1 h before the addition of bacterial lipopolysaccharide (E. coli 001:B4; Difco, Detroit) at 10 ng/ml. The cultures were then incubated at various intervals as indicated at 37° C. in a humidified 5% CO2 atmosphere. At the end of the incubation period, culture supernatants were collected. The residual adherent monocytes were lysed in a buffer containing 0.15M octyl-glucopyranoside, 25 mM Hepes, and 0.5 mM phenylmethylsulfonylfluoride in saline. Both supernatants and cell lysates were clarified by centrifugation and assayed for IL-1 activity.
IL-1 activity was measured by its ability to stimulate the secretion of IL-2 by EL-4 (ATCC TIB181) cells in the presence of A23187 ionophore. Serial dilutions of the samples were incubated with 10^5 EL-4 cells in the presence of 2×10^−7 M calcium ionophore A23187. After overnight incubation, 0.1 ml of a cell-free supernatant from each culture was taken and incubated with 10^4 IL-2-dependent […] (ATCC-T11B214) cells. Following an additional 20 hours of incubation, the cultures were pulsed with 1 μCi of tritiated thymidine for 4 h. The cells were then harvested onto glass-fibre filters and the radioactivity deterrnined by liquid scintillation counting.

The mark [3] stands for this setting: Table II, read-out: IC50 in competitive CSAID binding assay.

T1 sequence (Q16539 whole entry): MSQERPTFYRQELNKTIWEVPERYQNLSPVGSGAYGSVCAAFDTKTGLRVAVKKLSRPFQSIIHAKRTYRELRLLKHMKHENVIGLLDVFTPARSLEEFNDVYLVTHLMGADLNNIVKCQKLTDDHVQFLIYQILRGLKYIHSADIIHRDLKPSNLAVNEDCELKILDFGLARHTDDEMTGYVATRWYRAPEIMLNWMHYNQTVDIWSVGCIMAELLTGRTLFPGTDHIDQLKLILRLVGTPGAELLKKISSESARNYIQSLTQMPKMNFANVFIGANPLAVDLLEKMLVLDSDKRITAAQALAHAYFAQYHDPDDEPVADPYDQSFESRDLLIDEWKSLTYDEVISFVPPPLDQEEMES

The IC50 is the concentration that gives 50% inhibition. For `CC(Cc1ccc(O)c(O)c1)C(C)Cc1ccc(O)c(O)c1` (stereo not drawn) [NDGA], in experiment [1] (setting [3]), the IC50 came to 154000 nM. For the compound `CCc1nc(-c2ccc(OC)cc2)[nH]c1-c1ccncc1` [Compound VIII], the IC50 in experiment [2] (read-out: IC50 in the bioassay) is greater than 5000 nM. For `[N-]=[N+]=Nc1ccc(-c2nc(-c3cccc([125I])c3)c(-c3ccncc3)[nH]2)cc1` [Compound IV, 4-[2-(4-azidophenyl)-5-(3-^125Iodo-phenyl)-1H-imidazol-4-yl]pyridine], the IC50 in experiment [2] (read-out: IC50 in a CSAIDs bioassay) was 3000 nM; in experiment [1] (read-out: IC50 in a competitive binding assay) it was 500 to 800 nM.

As to `N#Cc1ccc(-c2nc(-c3ccc(F)cc3)c(-c3ccnc4ccccc34)n2O)cc1` [Compound VII], the half-inhibitory concentration (IC50) in experiment [2] (read-out: IC50 in the bioassay) amounted to 20 nM. `NC(=O)N1C(=O)/C(=C(\O)c2cccs2)c2cc(Cl)ccc21` [Tenidap]: the IC50 in experiment [1] (setting [3]) was 139000 nM.
